We go through nine molecules from patent US10820591B2, “Substituted sulfonyl amides for controlling animal pests” (Bayer Aktiengesellschaft, priority 2016, dated 2020).

Format in all cases: in vivo
Assay [1] has as its system Meloidogyne incognita. Nature of the assay: Meloidogyne incognita test (sand, lettuce, gall formation). Conditions: Meloidogyne incognita, 336 h, 20 ppm, after 14 days; read-out: nematicidal efficacy (formation of galls). In a few lines: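 Gall counts on lettuce roots were scored after 14 days in sand inoculated with root-knot nematode eggs/larvae plus compound diluted in water. Values run from 0% (galls as in untreated plants) to 100% (gall-free).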

For assay [2], the system named is Ctenocephalides felis. Nature of the assay: Ctenocephalides felis oral test. Conditions: 100 ppm, after 2 days. The method, then: Ctenocephalides felis—Oral Test Solvent: dimethyl sulfoxide To produce a suitable active compound preparation, 10 mg of active compound are mixed with 0.5 ml of dimethyl sulfoxide. Dilution with citrated cattle blood gives the desired concentration. About 20 unfed adult cat fleas (Ctenocephalides felis) are placed into a chamber which is closed at the top and bottom with gauze. A metal cylinder whose bottom end is closed with parafilm is placed onto the chamber. The cylinder contains the blood/active compound preparation, which can be imbibed by the fleas through the parafilm membrane. After 2 days, the kill in % is determined. 100% means that all of the fleas have been killed; 0% means that none of the fleas have been killed.

Assay [3] concerns Boophilus microplus. Nature of the assay: Boophilus microplus injection test. Conditions: 20 μg/animal, after 7 days. As for the experimental part: Boophilus microplus—Injection Test Solvent: dimethyl sulfoxide To produce a suitable active compound preparation, 10 mg of active compound are mixed with 0.5 ml of solvent and the concentrate is diluted to the desired concentration with solvent. 1 μl of the active compound solution is injected into the abdomen of 5 engorged adult female cattle ticks (Boophilus microplus). The animals are transferred into dishes and kept in a climate-controlled room. Efficacy is assessed after 7 days by laying of fertile eggs. Eggs which are not visibly fertile are stored in a climate-controlled cabinet until the larvae hatch after about 42 days. An efficacy of 100% means that none of the ticks has laid any fertile eggs; 0% means that all the eggs are fertile.

For assay [4], the system named is Nezara viridula. Kind of assay: Nezara viridula spray test. Conditions: 500 g/ha, barley plants, after 4 days. The method, then:
Nezara viridula—Spray Test [table] To produce a suitable active compound preparation, 1 part by weight of active compound is dissolved with the specified parts by weight of solvent and made up to the desired concentration with water containing an emulsifier concentration of 1000 ppm. To produce further test concentrations, the formulation is diluted with emulsifier-containing water. Barley plants (Hordeum vulgare) infected with larvae of the Southern green shield bug (Nezara viridula) are sprayed with an active compound preparation of the desired concentration. After 4 days, the efficacy in % is determined. 100% means that all of the shield bugs have been killed; 0% means that none of the shield bugs have been killed.

Assay [5] has as its system Tetranychus urticae. Nature of the assay: Tetranychus urticae spray test, OP-resistant. Conditions: foliar, 144 h, bean leaf discs, after 6 days, read-out: efficacy. As for the experimental part:
Tetranychus urticae—Spray Test, OP-Resistant
(§1) To produce a suitable active compound preparation, 1 part by weight of active compound is dissolved with the specified parts by weight of solvent and made up to the desired concentration with water containing an emulsifier concentration of 1000 ppm. To produce further test concentrations, the formulation is diluted with emulsifier-containing water.
Discs of bean leaves (Phaseolus vulgaris) infested with all stages of the greenhouse red spider mite (Tetranychus urticae) are sprayed with an active compound preparation of the desired concentration.
After 6 days, the efficacy in % is determined. 100% means that all the spider mites have been killed; 0% means that no spider mites have been killed.

For assay [6], the system named is Nilaparvata lugens. Nature of the assay: Nilaparvata lugens test. Conditions: 500 g/ha, spray, rice plants, after 4 days. The method, then:
Nilaparvata lugens Test [table] To produce a suitable active compound preparation, 1 part by weight of active compound is dissolved with the specified parts by weight of solvent and made up to the desired concentration with water containing an emulsifier concentration of 1000 ppm. To produce further test concentrations, the formulation is diluted with emulsifier-containing water. Rice plants (Oryza sativa) are sprayed with the active compound preparation of the desired concentration and then infected with larvae of the brown planthopper (Nilaparvata lugens). After 4 days, the efficacy in % is determined. 100% means that all of the planthoppers have been killed; 0% means that none of the planthoppers have been killed.

Assay [7] deals with Phaedon cochleariae. Kind of assay: Phaedon cochleariae spray test. Conditions: 500 g/ha, Chinese cabbage leaf discs, after 7 days. As for the experimental part: Phaedon cochleariae—Spray Test
as §1
After 7 days, the efficacy in % is determined. 100% means that all the beetle larvae have been killed; 0% means that no beetle larvae have been killed.

Assay [8] concerns Lucilia cuprina. Nature of the assay: Lucilia cuprina test. Conditions: 100 ppm, L1 larvae, after 2 days. As for the experimental part: Lucilia cuprina Test Solvent: dimethyl sulfoxide To produce a suitable active compound preparation, 10 mg of active compound are mixed with 0.5 ml of dimethyl sulfoxide, and the concentrate is diluted with water to the desired concentration. About 20 L1 larvae of the Australian sheep blowfly (Lucilia cuprina) are transferred into a test vessel containing minced horsemeat and the active compound preparation of the desired concentration. After 2 days, the kill in % is determined. 100% means that all the larvae have been killed; 0% means that no larvae have been killed.

Assay [9] has as its system Myzus persicae. Kind of assay: Myzus persicae spray test (Chinese cabbage leaf discs). Conditions: foliar, 144 h, 500 g/ha, after 6 days, read-out: efficacy.
Assay [10] has as its system Spodoptera frugiperda. Nature of the assay: Spodoptera frugiperda spray test. Conditions: 500 g/ha, maize leaf discs, after 7 days. The method, then: Spodoptera frugiperda—Spray Test [table] To produce a suitable active compound preparation, 1 part by weight of active compound is dissolved with the specified parts by weight of solvent and made up to the desired concentration with water containing an emulsifier concentration of 1000 ppm. To produce further test concentrations, the formulation is diluted with emulsifier-containing water. Leaf discs of maize (Zea mays) are sprayed with an active compound preparation of the desired concentration and, after drying, populated with caterpillars of the armyworm (Spodoptera frugiperda). After 7 days, the efficacy in % is determined. 100% means that all the caterpillars have been killed; 0% means that no caterpillar has been killed.

Assay [11] has as its system Diabrotica balteata. Kind of assay: Diabrotica balteata spray test. Conditions: 160 μg/well, after 7 days. As for the experimental part:
Diabrotica balteata—Spray Test [table] To produce a suitable active compound preparation, 1 part by weight of active compound is dissolved with the specified parts by weight of solvent and made up to the desired concentration with water containing an emulsifier concentration of 1000 ppm. To produce further test concentrations, the formulation is diluted with emulsifier-containing water. Pre-swollen wheat grains (Triticum aestivum) are incubated in a multiwell plate filled with agar and a little water for one day (5 seed grains per cavity). The germinated wheat grains are sprayed with an active compound preparation of the desired concentration. Subsequently, each cavity is infected with 10-20 beetle larvae of Diabrotica balteata. After 7 days, the efficacy in % is determined. 100% means that all maize plants have grown as in the untreated, uninfected control; 0% means that no maize plant has grown.

Assay [12] deals with Myzus persicae. Kind of assay: Myzus persicae oral test. Conditions: 120 h, 20 ppm, after 5 days, read-out: efficacy. The method, then:
(§2) Myzus persicae—Oral Test [table] To produce a suitable active compound preparation, 1 part by weight of active compound is dissolved with the stated parts by weight of solvent and made up to the desired concentration with water. 50 μl of the active compound preparation are transferred into microtitre plates and made up to a final volume of 200 μl with 150 μl of IPL41 insect medium (33%+15% sugar). Subsequently, the plates are sealed with parafilm, which a mixed population of green peach aphids (Myzus persicae) within a second microtitre plate is able to puncture and imbibe the solution through it. After 5 days, the efficacy in % is determined. 100% means that all the aphids have been killed; 0% means that no aphids have been killed.

Assay [13] concerns Myzus persicae. Kind of assay: Myzus persicae spray test (bell pepper plants). Conditions: 100 ppm, after 6 days. The method, then: Myzus persicae—Spray Test [table] To produce a suitable active compound preparation, 1 part by weight of active compound is dissolved with the specified parts by weight of solvent and made up to the desired concentration with water containing an emulsifier concentration of 1000 ppm. To produce further test concentrations, the formulation is diluted with emulsifier-containing water. If the addition of ammonium salts or/and penetrants is required, these are each added in a concentration of 1000 ppm to the formulation solution. Bell pepper plants (Capsicum annuum) severely infested with the green peach aphid (Myzus persicae) are treated by spraying with the active compound preparation in the desired concentration. After 6 days, the kill in % is determined. 100% means that all of the aphids have been killed; 0% means that none of the aphids have been killed.

Assay [14] has as its system Aphis gossypii. Nature of the assay: Aphis gossypii oral test. Conditions: 100 ppm, after 5 days. As for the experimental part:
as §2, with “Aphis gossypii—Oral” for “Myzus persicae—Oral”, “the cotton aphid (Aphis gossypii)” for “green peach aphids (Myzus persicae)”

For `COc1cccc(S(=O)(=O)NC(=O)c2ncn(CCC(F)(F)F)c2Cl)c1` [I-032], the pest or weed control at 20 ppm in assay [1] was 90%. The “efficacy (kill in %)” value in [2] amounted to 70%. Further, the “efficacy (laying of fertile eggs)” value in [3] came out at 90%. Also, the values for the efficacy in assay [4], in assay [6] and in assay [7] were 100%, 100% and 83%, respectively. Besides, in [5], the pest or weed control at 500 g/ha worked out at 90%.

As to `Cc1cccc(S(=O)(=O)NC(=O)c2ncn(CCC(F)(F)F)c2Cl)c1` [I-035], in [1], the pest or weed control at 20 ppm is 90%. In assay [3], the “efficacy (laying of fertile eggs)” value amounted to 100%. The “efficacy (kill in %)” value in assay [8] amounted to 100%. Moreover, the efficacy in assay [4], in assay [6] and in assay [7] was 100% in each case.

Turning to `O=C(NS(=O)(=O)c1ccccc1)c1ncn(C2CC2C(F)(F)F)c1Cl` (stereo not shown) [I-059], the pest or weed control at 500 g/ha in assay [9] was 70%; in [5], 90%. Besides, the pest or weed control at 20 ppm in assay [1] was determined as 100%. The “efficacy (laying of fertile eggs)” value in assay [3] is given as 100%. In addition, the efficacy is on record as 100% in assay [10] and 83% in assay [7].

Consider `O=C(NS(=O)(=O)c1ccccc1Cl)c1ncn(C2CC2C(F)(F)F)c1Cl` (stereo not shown) [I-060], for which the pest or weed control at 500 g/ha in assay [9] was 70%; in assay [5], 90%. Further, the pest or weed control at 20 ppm in assay [1] came out at 90%. Further, the “efficacy (laying of fertile eggs)” value in assay [3] amounted to 70%. Also, the efficacy in assay [10] was found to be 100%.

Turning to `COc1ccc(Cl)c(S(=O)(=O)NC(=O)c2nc(Cl)n(CCC(F)(F)F)c2Cl)c1` [I-118], in [1], the pest or weed control at 20 ppm came out at 100%. The molecule also had an efficacy in assay [11] of 100%.

For the molecule `O=C(NS(=O)(=O)c1ccccc1Cl)c1cn(Cc2ccccc2Cl)cn1` [I-156], the pest or weed control at 20 ppm in assay [1] worked out at 100%. Also, in [10], the efficacy is 100%.

With `Cc1nc(C(=O)NS(=O)(=O)c2ccccc2Cl)cn1-c1cc(Cl)cc(Cl)c1` [I-316], the pest or weed control at 20 ppm in assay [12] and in [1] was 100% throughout. Also, the “efficacy (kill in %)” value in [13] worked out at 95%.

Turning to `CCSc1cccc(Cl)c1S(=O)(=O)NC(=O)c1cn(-c2cc(F)cc(F)c2)c(C)n1` [I-387], the pest or weed control at 500 g/ha in assay [9] came out at 70%. The pest or weed control at 20 ppm in assay [12] and in [1] was 100% in each case. In addition, the “efficacy (kill in %)” value in assay [13] was 99%.

Regarding `CS(=O)(=O)NC(=O)c1cn(Cc2ccc(C(F)(F)F)c(Cl)c2)cn1` [I-412], the pest or weed control at 20 ppm in assay [1] worked out at 100%. Besides, in assay [14], the efficacy was determined as 90%.
